# In patent US20260337125A1, “RADIOLABELED TYROSINE DERIVATIVE AND APPLICATION THEREOF” (Osaka University, priority 2022, published 2026):
# Assays:
# [1] = tested on: CDDP-resistant A549 (A549 CDDP-r); conditions: 48 hours, 37 °C, Cell counting kit-8
# Protocol: Two days before experiment, A549 and CDDP-resistant A549 (A549 CDDP-r) were each seeded in a 96-well plate at a concentration of 1×10^5 cells/mL. ^211At-AAMT-OMe or ^211At-AAMT adjusted to a predetermined concentration was added to A549 cells and CDDP-resistant A549 cells, respectively, and the cells were cultured (CO2 5%, 37 °C). After the cultivation for 48 hours, Cell counting kit-8 (DOJINDO LABORATORIES) was added. After the addition, the cells were cultured at 37 °C for 1 hour, and cell viability was measured using absorbance at 450 nm as an indicator.
# PANC1 = assay: Cellular uptake test (Using PANC1); type: cell-based, human
# Protocol: • Cells to be used: PANC1 • Culture medium to be used: D-MEM (containing 10% FBS, 1% P/S)
# Two days before a test day, a cell suspension was prepared in such a manner that the concentration of predetermined cells was 1×10^5 cells/mL in the same manner as in Test Example 1. The cell suspension was seeded in a 24-well multiculture plate at a volume of 0.5 mL per well. On the day of the test, cultures were confirmed to be subconfluent (which refers to a state where 70-80% of the well is covered in density). The cells were washed twice with warmed PBS(-) Buffer (166-23555, FUJIFILM Wako Pure Chemical Corporation), the culture medium was replaced with HBSS(-) Buffer (085-09355, FUJIFILM Wako Pure Chemical Corporation), and the plate was left to stand in an incubator (MINIcell-35, WakenBtech Co., Ltd) until an RI addition test.
# ^211At-AAMT-OMe, ^211At-AAMT-OEt, ^211At-AAMT-OPr, or ^211At-AAMT was added to the prepared cells at 10 μL/well. BCH (LAT1 inhibitor, 20 mM) or unlabeled AMT (α-methyl tyrosine, 1 μg/mL) was previously (15 minutes before) added ([…]). The cells were cultured (CO2 5%, 37 °C), and after 30 minutes, the liquid was removed by suction using an aspirator. The cells were washed twice with PBS(-). The cells were lysed by adding 0.1N NaOH to obtain a lysate, and the radioactivity of the lysate was measured using a γ counter. After the radioactivity measurement, the lysate was loaded into a 96-well plate at a volume of 10 μL per well, the protein amount was measured by the BCA method, and the number of cells was corrected based on the protein amount. Absorbance was measured by MultiScanFC (Thermo Fisher). The uptake level of ^211At-AAMT-OMe, ^211At-AAMT-OEt, ^211-At-AAMT-OPr, or ^211At-AAMT into the cells (number of radioactivity counts/protein amount) was calculated.
# [2] = Measurement of accumulated amounts of 211At-labeled compounds in PANC1 tumor-bearing mice; type: in vivo, human (PANC1) in Balb/c-nu/nu mice; conditions: tumor, iv, 0.1 MBq/animal, 0.1 MBq/0.2 mL per mouse, tail vein, read-out: tumor accumulation
# Protocol: (§1) Radiation doses before and after the administration were measured, and a difference between them was defined as an injected dose (ID). Ten minutes and one hour after administration, the mice were anesthetized by isoflurane inhalation, the tumors were isolated by autopsy in chronological order, and their radiation doses and weights were measured using a gamma counter (2480 Wizard^2, PerkinElmer) and a semimicro scale (Shimadzu Corporation, readability 10 μg), respectively. For comparison between accumulated amounts, accumulated amounts per unit amount (% ID/g) were calculated.
# (§2) In Table 1, the amounts of the ^211At-labeled compounds accumulated in tumors of the PANC1 tumor-bearing models (% ID/g) are shown. It should be noted that in Table 1, “OMe” is ^211At-AAMT-OMe, “OEt” is ^211At-AAMT-OEt, “OPr” is ^211At-AAMT-OPr, and “OH” is ^211At-AAMT.
# PANC1 tumor = assay: as above; type: in vivo, human (PANC1) in Balb/c-nu/nu mice
# Protocol: as §1, §2
# A549 = assay: Therapeutic test on mice subcutaneously transplanted with A549; type: in vivo, human (A549) in Balb/c-nu/nu mice; conditions: A549 tumor weight 30 days after administration, 0.5 MBq/0.2 mL per mouse, tail vein
# Protocol: Immunodeficient mice (Balb/c-nu/nu, 5-week-old, male) were habituated for 1 week and then subcutaneously transplanted with A549 or CDDP-resistant A549 (A549 CDDP-r) (1×10^7 cells/mouse). The mice were observed over time until engraftment of tumors was confirmed (50 to 100 mm^3), and when the tumors reached a predetermined size, ^211At-AAMT-OMe or ^211At-AAMT diluted with water for injection to 0.5 MBq/0.2 mL per mouse was administered via tail vein. Thirty days after administration, the mice were euthanized and tumor masses were isolated. After fat tissue and the like were trimmed off, the wet weights of the isolated tumor masses were measured to make a histogram.
# [3] = tested on: human pancreatic cancer cell line (PANC1); type: in vivo, human (PANC1) in Balb/c-nu/nu mice; conditions: 1 MBq/0.2 mL per mouse, tail vein
# Text: The experiment was terminated 21 days after administration.
compound,measurement,setting,value
"COc1ccc(C[C@](C)(N)C(=O)O)cc1[At] [^211At-AAMT-OMe, (S)-3-astato(^211At)-O-methyl-α-methyltyrosine]",cytotoxicity,[1],more remarkable cytotoxicity against A549 CDDP-r
same,uptake level into cells (number of radioactivity counts/protein amount),PANC1,much superior in uptake level to ^211At-AAMT
same,uptake speed,"PANC1; PANC1 cells, uptake level immediately after addition",much superior also in uptake speed
same,tissue uptake at 10 min,[2]; 10 minutes after administration,2.59 %ID/g
same,tissue uptake at 1 h,[2]; 1 hour after administration,3.78 %ID/g
same,accumulation in the tumor sites compared to 211At-AAMT,"PANC1 tumor; 10 minutes and 1 hour after administration, tail vein",more highly accumulated in the tumor sites than ^211At-AAMT
same,retention at tumor sites,PANC1 tumor; compared to 211At-AAMT,superior retention at tumor sites compared to ^211At-AAMT
same,anti-tumor effect,A549,comparable to that of ^211At-AAMT on A549
same,apparent toxicity,[3]; 21 days,apparent toxicity induced by their administration was not observed
same,lesions other than tumor at autopsy,[3]; 21 days,lesions other than tumor were not observed
same,mouse body weight,[3]; up to 21 days after administration,gently increased
